Assay results from PMC4010551, “Targeting Staphylococcus aureus Quorum Sensing with Nonpeptidic Small Molecule Inhibitors” (Journal of Medicinal Chemistry, 2014).
pIC50, pKd: −log10 of the molar value. ≈ marks a conversion by molar mass, not a printed value. Entries after “also recorded” stand apart in the source; their conditions may differ. Read-outs that look alike come from different tables or passages of the source.

What was measured:
S. aureus membranes = molecular target: S. aureus membranes; set-up: species or system Staphylococcus aureus; details: read-out: Kd (membrane binding)
agr = experiment: microbe, parasite or virus in culture; type: cell-based, Staphylococcus aureus; details: for pIC50: Staphylococcus aureus, read-out: agr IC50; for difference between MIC and agr IC50: MIC relative to agr IC50; for effect of double bond in acyl chain on activity: S18 cf. 15, S19 cf. 16
Staphylococcus aureus = experiment: Antibacterial activity (MIC in MH broth); type: cell-based; details: for MIC: Staphylococcus aureus; for inhibition of bacterial growth (result in words): at 100 μM
AgrC-1 = type: cell-based, Staphylococcus aureus; details: for competition with AIP-1 for cognate AgrC: blaZ-based agrP3 reporter
C. difficile = test system: C. difficile; set-up: method as in PMID 19917748; details: cited from earlier work
P. aeruginosa = test system: P. aeruginosa; set-up: method as in PMID 21502732; details: cited from earlier work
[1] = set-up: method as in PMID 15623555, PMID 22178671; details: cited from earlier work
S. aureus strain Newman = details: mouse, in vivo
[2] = test system: adherence of S. aureus to human nasal squamous cells; type: cell-based, Staphylococcus aureus
S. aureus USA300 = type: cell-based, Staphylococcus aureus; details: 4 at up to 100 μM

| SMILES | MIC (Staphylococcus aureus) | pIC50 (agr) | other results |
| --- | --- | --- | --- |
| CCCCCCCCCC(=O)C1=C(O)COC1=O [Compound 15] |  |  | pKd (S. aureus membranes): 3.59 |
| CCCCCCCCC/C(O)=C1\C(=O)CNC1=O [Compound 13, 3-decanoyltetramic acid] |  |  | inhibited agr (result in words) (agr): enhanced agr inhibitory activity |
| CCCCCCCCN(C)C(=O)CC(=O)N[C@H]1CCOC1=O [Compound S11] | > 100 µM | < 4.00 |  |
| CCCCCCCCCCCCC/C(O)=C1/C(=O)N[C@@H](CCO)C1=O [Compound 8] |  |  | pKd (S. aureus membranes): 5.70; fold lower MIC (Staphylococcus aureus; versus 5 (MIC 100 μM)): 8 fold; difference between MIC and agr IC50 (agr): little different |
| CC(C)CCCCCCC(=O)C1=C(O)COC1=O [Compound S17] | > 100 µM | < 4.00 |  |
| O=C1N[C@@H](CCO)C(=O)/C1=C(/O)Cc1ccc([N+](=O)[O-])cc1 [Compound 11] | > 100 µM | < 4.00 |  |
| CCCCC/C=C/CCC(=O)C1=C(O)COC1=O [Compound S18] |  |  | effect of double bond in acyl chain on activity (agr): little effect on activity |
| CCCCCCCCC/C(O)=C1/C(=O)N[C@H](CCO)C1=O [Compound 9] | > 100 µM |  | fold improvement of agr inhibitory activity (agr; (R)-9 versus (S)-5): 1.5 fold |
| CCCCCCCCCCCC(=O)C1=C(O)COC1=O [Compound 16, 3-Dodecanoyltetronic Acid] |  |  | fold more potent in preventing AIP-mediated activation of AgrC (AgrC-1; 16 versus 1 and 5): at least 5 fold; competition with AIP-1 for cognate AgrC (AgrC-1): do not compete; pKd (S. aureus membranes): 4.14 |
| CCCCCCCCCC(=O)CC(=O)N[C@@H]1CCOC1=O [Compound 2] |  |  | fold less active in agr inhibition than L-isomer 1 (agr; D-isomer 2 versus 1): approximately 2 fold |
| CCCCCCCCCC(=O)CC(N)=O [Compound S2, 3-oxododecanamide] | > 100 µM | < 4.00 | inhibited agr (result in words) (agr): neither |
| CCCCCCCCC/C(O)=C1/C(=O)N[C@@H](C)C1=O [Compound 12, (S)-3-Decanoyl-5-methyltetramic acid] |  |  | inhibited agr (result in words) (agr): enhanced agr inhibitory activity |
| CCCCC/C=C/CCC(=O)CC(=O)N[C@H]1CCOC1=O [Compound S14] | > 100 µM | < 4.00 |  |
| CCCCCCCCCC(=O)CC(=O)N[C@H]1CCSC1=O [Compound S4] | > 100 µM | < 4.00 |  |
| O=C(Cc1ccc([N+](=O)[O-])cc1)C1=C(O)COC1=O [Compound S20] | > 100 µM | < 4.00 |  |
| O=C(COc1ccc(Br)cc1)C1=C(O)COC1=O [Compound S22] | > 100 µM | < 4.00 |  |
| O=C(CCCc1ccccc1)CC(=O)N[C@H]1CCOC1=O [Compound S15] | > 100 µM | < 4.00 |  |
| CCCCCCCCCC(=O)CC(=O)N[C@H]1CCNC1=O [Compound S5] | > 100 µM | < 4.00 |  |
| O=C(CCCC1CCCCC1)CC(=O)N[C@H]1CCOC1=O [Compound S16] | > 100 µM | < 4.00 |  |
| CCCCCCCCCC(=O)CC(=O)O[C@H]1CCOC1=O [Compound S13] |  | < 4.00 | MIC (Staphylococcus aureus; S. aureus, Table S1, read-out: MIC): > 100 µM |
| CCCCCCCCCC(=O)CC(=O)Nc1nccs1 [Compound S3] | > 100 µM | < 4.00 |  |

| SMILES | MIC (Staphylococcus aureus) | pIC50 (agr) | other results |
| --- | --- | --- | --- |
| CCCCCCCCCCC/C(O)=C1/C(=O)N[C@@H](CCO)C1=O [Compound 7, (S)-3-Dodecanoyl-5-(2-hydroxyethyl)tetramic Acid] |  |  | pKd (S. aureus membranes): 4.64 |
| CCCCCCCCCC(=O)CC(=O)N[C@@H](CCO)C(=O)O [Compound S1, N-(3-oxododecanoyl)-L-homoserine] | > 100 µM | < 4.00 | inhibited agr (result in words) (agr): neither |
| CCCCCCCCCC(=O)CC(=O)C1=C(O)COC1=O [Compound S24] | > 100 µM | < 4.00 |  |
| CCCCCCCCCC(O)CC(=O)N[C@H]1CCOC1=O (some centres unmarked) [Compound S9] | > 100 µM | < 4.00 |  |
| CCCCCCCCNC(=O)CC(=O)N[C@H]1CCOC1=O [Compound S10] | > 100 µM | < 4.00 |  |
| CCCCCCCCCCCC(=O)N[C@H]1CCOC1=O [Compound S8] | > 100 µM | < 4.00 |  |
| O=C(Cc1ccc(Br)cc1)C1=C(O)COC1=O [Compound S21] | > 100 µM | < 4.00 |  |
| CCC/C(O)=C1/C(=O)N[C@@H](CCO)C1=O [Compound 3] | > 100 µM | < 4.00 | inhibition of bacterial growth (result in words) (Staphylococcus aureus): did not inhibit growth; killing of C. difficile (C. difficile): not C. difficile; killing of P. aeruginosa (P. aeruginosa): kill P. aeruginosa |
| CCCCCC/C=C\CCCC(=O)C1=C(O)COC1=O [Compound S19] | > 100 µM |  | effect of double bond in acyl chain on activity (agr): almost abolished |
| CCCC(=O)CC(=O)C1=C(O)COC1=O [Compound S23] | > 100 µM | < 4.00 |  |
| CCCCCC(=O)C1=C(O)COC1=O [Compound 14] | > 100 µM |  |  |
| CCCCCCCCOC(=O)CC(=O)N[C@H]1CCOC1=O [Compound S12] | > 100 µM | < 4.00 |  |
| O=C1N[C@@H](CCO)C(=O)/C1=C(/O)CCCC1CCCCC1 [Compound 10] | > 100 µM | < 4.00 |  |
| CCCCCCCCCC/C(O)=C1/C(=O)N[C@@H](CCO)C1=O [Compound 6] |  |  | difference between MIC and agr IC50 (agr): 5 fold |
| CCCCCCCCC/C(O)=C1/C(=O)N[C@@H](CCO)C1=O [Compound 5, (S)-3-Decanoyl-5-(2-hydroxyethyl)tetramic Acid] |  |  | competition with AIP-1 for cognate AgrC (AgrC-1): do not compete; decrease of maximum level of activation by AIP-1 (AgrC-1; increasing concentrations of 5 from 0 to 100 μM): over 10 fold; ferric ion chelator (result in words) [1]: ferric ion chelators; activity in murine infection model (S. aureus strain Newman): inactive; attachment of S. aureus to human squamous cells [2]: substantially reduced attachment; pKd (S. aureus membranes): 3.65 |
| CCCCCCC/C(O)=C1/C(=O)N[C@@H](CCO)C1=O [Compound 4] | > 100 µM |  | staphylococcal growth (S. aureus USA300): without affecting staphylococcal growth; also recorded: without inhibiting the growth; inhibition of bacterial growth (result in words) (Staphylococcus aureus): did not inhibit growth |
| CCCCCCCCCCCCCCCC(=O)C1=C(O)COC1=O [Compound 18] | > 100 µM |  |  |
| CCCCCCCCCC(=O)CC(=O)N[C@H]1CC(=O)NC1=O [Compound S7] | > 100 µM | < 4.00 |  |
| CCCCCCCCCC(=O)CC(=O)N[C@H]1CCC(=O)NC1=O [Compound S6] | > 100 µM | < 4.00 |  |
| CCCCCCCCCC(=O)CC(=O)N[C@H]1CCOC1=O [Compound 1, N-(3-oxododecanoyl)-L-homoserine lactone] |  |  | competition with AIP-1 for cognate AgrC (AgrC-1): do not compete; pKd (S. aureus membranes): 3.57; MIC (Staphylococcus aureus; S. aureus, MH broth, Table 1, read-out: MIC): 100 µM (≈ 29.7 µg/mL) |
